Columns and labels:
Test in all cases: In vitro antibacterial MIC, broth microdilution
P. aeruginosa 799/61 = format: cell-based, Pseudomonas aeruginosa; conditions: P. aeruginosa 799/61 (sensitive strain); Mueller Hinton broth, 20 h at 35° C.
Procedure: (§1) The compounds of the invention were evaluated against various bacterial strains by determining the minimum inhibitory concentration (MIC) of each compound with respect to each strain. The MIC is defined as the lowest concentration of drug which prevents the growth of the bacteria. A variety of different Gram-negative and Gram-positive bacterial species and strains can be selected for assay purposes depending on the particular desired application. The susceptibility assay is performed in Mueller Hinton broth using a microdilution technique in a final test volume of 100 μl using 96-well microtiter plates. Test compounds are prepared in Mueller-Hinton broth at a concentration equivalent to 2-fold the desired final concentration. The bacterial inoculi are prepared as follow. Bacterial strains are grown overnight at 35° C. on Tryptic Soy agar (TSA). For each strain, one isolated colony is used to inoculate a volume of 8 ml of Mueller Hinton broth and these cultures are incubated overnight (20 h) at 35° C. in a shaking incubator. Culture are then diluted 1:10 and allow to grow for an additional one hour at 35° C. in a shaking incubator. The inoculum used for the susceptibility assay is prepared by diluting the early log-phase (1 h) culture 1:2000 with fresh Mueller Hinton broth. A 50 μl volume of the inoculi, and a 50 μl solution of the test compound prepared as described above is added to each well. This procedure results in an inoculum of approximately 5×10^5 CFU/ml. After incubation for 20 h at 35° C., the absorbance of the cultures in each is read, e.g., using the ThermoMax microtiter plate reader (Molecular Devices) at 650 nm. The MIC is defined as the lowest concentration of compounds which prevents growth of the microorganism and therefore results in a final absorbance equal to that of the drug-free (e.g., test compound free) control.

P. aeruginosa ATCC 27853 = format: cell-based, Pseudomonas aeruginosa; conditions: Mueller Hinton broth, 20 h at 35° C.
Procedure: as §1

P. aeruginosa UPA res. = format: cell-based, Pseudomonas aeruginosa; conditions: Mueller Hinton broth, 20 h at 35° C.
Procedure: as §1

E. coli ATCC 25922 = format: cell-based; conditions: Mueller Hinton broth, 20 h at 35° C.
Procedure: as §1

E. faecalis ATCC 29212 = format: cell-based; conditions: Mueller Hinton broth, 20 h at 35° C.
Procedure: as §1

S. aureus ATCC 29213 = format: cell-based; conditions: Mueller Hinton broth, 20 h at 35° C.
Procedure: as §1

[1] = test system: S. epidermidis ATCC 31432; format: cell-based; conditions: Mueller Hinton broth, 20 h at 35° C.
Procedure: as §1

[2] = test system: X. maltophilia ATCC 13637; format: cell-based; conditions: Mueller Hinton broth, 20 h at 35° C.
Procedure: as §1

Compound | Minimal Inhibitory Concentration, MIC (P. aeruginosa 799/61) [µg/mL] | Minimal Inhibitory Concentration, MIC (P. aeruginosa ATCC 27853) [µg/mL] | Minimal Inhibitory Concentration, MIC (P. aeruginosa UPA res.) [µg/mL] | Minimal Inhibitory Concentration, MIC (E. coli ATCC 25922) [µg/mL] | Minimal Inhibitory Concentration, MIC (E. faecalis ATCC 29212) [µg/mL] | Minimal Inhibitory Concentration, MIC (S. aureus ATCC 29213) [µg/mL] | Minimal Inhibitory Concentration, MIC [1] [µg/mL] | Minimal Inhibitory Concentration, MIC [2] [µg/mL]
C[C@H](N)C(=O)N[C@@H](Cc1cccc(O)c1)C(=O)N(C)[C@@H](C)[C@H](NC(=O)[C@H](C)NC(=O)N[C@@H](Cc1c[nH]c2ccccc12)C(=O)O)C(=O)N/C=C1/C[C@@H](O)[C@H](n2ccc(=O)[nH]c2=O)O1 [Pacidamycin-1, pacidamycin-1, reference compound] | 1 | 4 | > 250 | > 250 | 64 | > 250 | > 250 | > 250
C[C@H](NC(=O)N[C@@H](Cc1c[nH]c2ccccc12)C(=O)O)C(=O)N[C@H](C(=O)N/C=C1/C[C@@H](O)[C@H](n2ccc(=O)[nH]c2=O)O1)[C@H](C)N(C)C(=O)[C@@H](N)Cc1cccc(O)c1 [Pacidamycin-4, pacidamycin-4, reference compound] | 2 | 16 | > 250 | 64 | 64 | > 250 | > 250 | 
C[C@H](N)C(=O)N(C)[C@@H](C)[C@H](NC(=O)[C@H](C)NC(=O)N[C@@H](Cc1c[nH]c2ccccc12)C(=O)O)C(=O)N/C=C1/C[C@@H](O)[C@H](n2ccc(=O)[nH]c2=O)O1 [Pacidamycin-D, pacidamycin-D] | 4 | 16 | > 256 |  |  |  |  | 
pacidamycin-4N | 4 | 64 | > 256 |  |  |  |  | 
pacidamycin-5N | 64 | > 500 | > 500 | > 500 | > 500 | > 500 | > 500 | > 500
pacidamycin-5T | 125 | > 500 | > 500 | > 500 | > 500 | > 500 | > 500 | > 500

Reference: patent US6228842A, “Pacidamycins produced by Streptomyces coeruleorubidus” (Microcide Pharmaceuticals, Inc., priority 1998, dated 2001)
